# Laboratory results published in US20200345776A1, “CELL” (AUTOLUS LIMITED, priority 2017, published 2020).
# How the values were obtained:
# [1] = molecular target: Adenosine A2AR receptor (Homo sapiens, UniProt P29274); settings: cited from earlier work
# [2] = test system: SKOV3 cells; settings: positive control of cell killing/inhibition, 10 ug/ml; cited from earlier work
# [3] = test system: cancer cells; settings: cited from earlier work
# [4] = test system: SKOV3 cells; assay: Co-culture of violacein-producing SupT1 cells with SKOV3 cells, live cell imaging; format: cell-based, human; settings: FIG. 12, co-culture
# Experimental: The following day the indicated supT1 cells were added to the SKOV3 cells at density of 20,000 cells per well in a total volume of 200 ul cell culture medium. Cells were continuously monitored in a Incycute live cell imager and the number of viable SKOV3 cells enumerated every hour by counting the presence of red fluorescent nuclei.
# [5] = test system: MOLT-4 leukaemia; settings: cited from earlier work
# [6] = test system: KM12 colon-cancer cell lines; settings: cited from earlier work
# [7] = test system: NCI-H460 non-small-cell lung cancer; settings: cited from earlier work
# Chain of Adenosine A2AR receptor (P29274 whole entry): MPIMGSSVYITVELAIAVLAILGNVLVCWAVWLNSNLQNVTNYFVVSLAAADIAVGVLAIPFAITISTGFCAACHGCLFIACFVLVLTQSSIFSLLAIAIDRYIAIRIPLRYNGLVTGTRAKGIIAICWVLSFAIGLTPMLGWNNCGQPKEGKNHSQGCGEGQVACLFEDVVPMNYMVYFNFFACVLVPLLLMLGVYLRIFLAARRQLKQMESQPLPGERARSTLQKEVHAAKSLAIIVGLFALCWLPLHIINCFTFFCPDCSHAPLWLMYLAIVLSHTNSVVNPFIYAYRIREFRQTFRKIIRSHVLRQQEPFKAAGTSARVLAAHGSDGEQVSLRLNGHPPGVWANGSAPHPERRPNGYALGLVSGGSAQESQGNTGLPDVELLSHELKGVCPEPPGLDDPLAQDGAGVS
smiles,measurement,setting,value
Cn1c(=O)c2c(ncn2C)n(C)c1=O [Caffeine],Action on Adenosine A2AR receptor expressed on T cells,[1],known antagonist
COc1cc([C@@H]2c3cc4c(cc3[C@@H](O[C@@H]3O[C@@H]5CO[C@@H](C)O[C@H]5[C@H](O)[C@H]3O)[C@H]3COC(=O)[C@H]23)OCO4)cc(OC)c1O [Etoposide],Apoptosis of SKOV3 cells,[2],induces the apoptosis
CC(C)=CCC/C(C)=C/CO [Geraniol],Effect against cancer cells in vitro,[3],anti-proliferative/pro-apoptotic effect
O=C1NC(c2c[nH]c3ccc(O)cc23)=C/C1=C1\C(=O)Nc2ccccc21 [Violacein],Toxicity of violacein produced by SupT1 cells to SKOV3 tumour cells,[4],toxic
same,Activity against MOLT-4 leukaemia,[5],has activity
same,Activity against KM12 colon-cancer cell lines,[6],has activity
same,Activity against NCI-H460 non-small-cell lung cancer,[7],has activity
